Tests used:
Assay type in all cases: functional
MDA-MB-435 = test: Growth inhibition of human MDA-MB-435 cells after 48 hrs by sulforhodamine B assay; details: MDA-MB-435, 48 h
SK-MEL-2 = test: Growth inhibition of human SK-MEL-2 cells after 48 hrs by sulforhodamine B assay; details: SK-MEL-2, 48 h
TK-10 = test: Growth inhibition of human TK10 cells after 48 hrs by sulforhodamine B assay; details: TK-10, 48 h
DU-145 = test: Growth inhibition of human DU145 cells after 48 hrs by sulforhodamine B assay; details: DU-145, 48 h
M14 = test: Growth inhibition of human M14 cells after 48 hrs by sulforhodamine B assay; details: M14, 48 h
HCT-15 = test: Growth inhibition of human HCT15 cells after 48 hrs by sulforhodamine B assay; details: HCT-15, 48 h
SF-539 = test: Growth inhibition of human SF539 cells after 48 hrs by sulforhodamine B assay; details: SF-539, 48 h
OVCAR-8 = test: Growth inhibition of human OVCAR8 cells after 48 hrs by sulforhodamine B assay; details: OVCAR-8, 48 h
PC-3 = test: Growth inhibition of human PC3 cells after 48 hrs by sulforhodamine B assay; details: PC-3, 48 h
SK-MEL-5 = test: Growth inhibition of human SK-MEL-5 cells after 48 hrs by sulforhodamine B assay; details: SK-MEL-5, 48 h
UACC-257 = test: Growth inhibition of human UACC257 cells after 48 hrs by sulforhodamine B assay; details: UACC-257, 48 h
SR = test: Growth inhibition of human SR cells after 48 hrs by sulforhodamine B assay
SNB-19 = test: Growth inhibition of human SNB19 cells after 48 hrs by sulforhodamine B assay; details: SNB-19, 48 h
HOP-92 = test: Growth inhibition of human HOP92 cells after 48 hrs by sulforhodamine B assay; details: HOP-92, 48 h
NCI-H23 = test: Growth inhibition of human NCI-H23 cells after 48 hrs by sulforhodamine B assay; details: NCI-H23, 48 h
HL-60(TB) = test: Growth inhibition of human HL-60(TB) cells after 48 hrs by sulforhodamine B assay; details: HL-60, 48 h
CAKI-1 = test: Growth inhibition of human Caki1 cells after 48 hrs by sulforhodamine B assay; details: CAKI-1, 48 h
CCRF-CEM = test: Growth inhibition of human CCRF-CEM cells after 48 hrs by sulforhodamine B assay
BT-549 = test: Growth inhibition of human BT549 cells after 48 hrs by sulforhodamine B assay; details: BT-549, 48 h
SNB-75 = test: Growth inhibition of human SNB75 cells after 48 hrs by sulforhodamine B assay; details: SNB-75, 48 h
MOLT-4 = test: Growth inhibition of human MOLT4 cells after 48 hrs by sulforhodamine B assay; details: MOLT-4, 48 h
SK-MEL-28 = test: Growth inhibition of human SK-MEL-28 cells after 48 hrs by sulforhodamine B assay; details: SK-MEL-28, 48 h
SW-620 = test: Growth inhibition of human SW620 cells after 48 hrs by sulforhodamine B assay; details: SW-620, 48 h
HT-29 = test: Growth inhibition of human HT-29 cells after 48 hrs by sulforhodamine B assay; details: HT-29, 48 h
SN12C = test: Growth inhibition of human SN12C cells after 48 hrs by sulforhodamine B assay
LOX IMVI = test: Growth inhibition of human LOXIMVI cells after 48 hrs by sulforhodamine B assay
NCI-H522 = test: Growth inhibition of human NCI-H522 cells after 48 hrs by sulforhodamine B assay; details: NCI-H522, 48 h
NCI/ADR-RES = test: Growth inhibition of human NCI-ADR-RES cells after 48 hrs by sulforhodamine B assay
UO-31 = test: Growth inhibition of human UO31 cells after 48 hrs by sulforhodamine B assay; details: UO-31, 48 h
ACHN = test: Growth inhibition of human ACHN cells after 48 hrs by sulforhodamine B assay
[1] = Induction of apoptosis in human M9-ENL1 cells assessed as cell death after 24 hrs by Annexin V/PI or 7-AAD staining based flow cytometry; details: M9-ENL1, 24 h, read-out: LC50 (the source's name)
HCT-116 = test: Growth inhibition of human HCT116 cells after 48 hrs by sulforhodamine B assay; details: HCT-116, 48 h
COLO 205 = test: Growth inhibition of human COLO205 cells after 48 hrs by sulforhodamine B assay; details: COLO 205, 48 h
KM12 = test: Growth inhibition of human KM12 cells after 48 hrs by sulforhodamine B assay; details: KM12, 48 h
K562 = test: Growth inhibition of human K562 cells after 48 hrs by sulforhodamine B assay; details: K562, 48 h
SK-OV-3 = test: Growth inhibition of human SKOV3 cells after 48 hrs by sulforhodamine B assay; details: SK-OV-3, 48 h
786-0 = test: Growth inhibition of human 786-0 cells after 48 hrs by sulforhodamine B assay; details: 786-0, 48 h
U-251 = test: Growth inhibition of human U251 cells after 48 hrs by sulforhodamine B assay; details: U-251, 48 h
MDA-MB-231 = test: Growth inhibition of human MDA-MB-231 cells after 48 hrs by sulforhodamine B assay; details: MDA-MB-231, 48 h
Hs-578T = test: Growth inhibition of human Hs 578T cells after 48 hrs by sulforhodamine B assay
MDA-MB-468 = test: Growth inhibition of human MDA-MB-468 cells after 48 hrs by sulforhodamine B assay; details: MDA-MB-468, 48 h
MCF7 = test: Growth inhibition of human MCF7 cells after 48 hrs by sulforhodamine B assay; details: MCF7, 48 h
NCI-H226 = test: Growth inhibition of human NCI-H226 cells after 48 hrs by sulforhodamine B assay; details: NCI-H226, 48 h
NCI-H460 = test: Growth inhibition of human NCI-H460 cells after 48 hrs by sulforhodamine B assay; details: NCI-H460, 48 h
A498 = test: Growth inhibition of human A498 cells after 48 hrs by sulforhodamine B assay; details: A498, 48 h
SF-295 = test: Growth inhibition of human SF295 cells after 48 hrs by sulforhodamine B assay; details: SF-295, 48 h
HCC 2998 = test: Growth inhibition of human HCC2998 cells after 48 hrs by sulforhodamine B assay; details: HCC 2998, 48 h
UACC-62 = test: Growth inhibition of human UACC62 cells after 48 hrs by sulforhodamine B assay; details: UACC-62, 48 h
[2] = Growth inhibition of human M9-ENL1 cells after 24 hrs by trypan blue assay; details: M9-ENL1, 24 h
OVCAR-5 = test: Growth inhibition of human OVCAR5 cells after 48 hrs by sulforhodamine B assay; details: OVCAR-5, 48 h
SF-268 = test: Growth inhibition of human SF268 cells after 48 hrs by sulforhodamine B assay; details: SF-268, 48 h
Malme-3M = test: Growth inhibition of human MALME-3M cells after 48 hrs by sulforhodamine B assay
OVCAR-4 = test: Growth inhibition of human OVCAR4 cells after 48 hrs by sulforhodamine B assay; details: OVCAR-4, 48 h
OVCAR-3 = test: Growth inhibition of human OVCAR3 cells after 48 hrs by sulforhodamine B assay; details: OVCAR-3, 48 h
RPMI-8226 = test: Growth inhibition of human RPMI8226 cells after 48 hrs by sulforhodamine B assay; details: RPMI-8226, 48 h
RXF 393 = test: Growth inhibition of human RXF393 cells after 48 hrs by sulforhodamine B assay; details: RXF 393, 48 h
NCI-H322M = test: Growth inhibition of human NCI-H322M cells after 48 hrs by sulforhodamine B assay
T47D = test: Growth inhibition of human T47D cells after 48 hrs by sulforhodamine B assay
A549 = test: Growth inhibition of human A549/ATCC cells after 48 hrs by sulforhodamine B assay; details: A549, 48 h

C=C1C(=O)O[C@H]2[C@H]1CC/C(COC(=O)CCC(=O)NCCCCCCCCNC(=O)CCC(=O)OC/C1=C/CC[C@@]3(C)O[C@H]3[C@H]3OC(=O)C(=C)[C@@H]3CC1)=C\CC[C@@]1(C)O[C@@H]21
GI50 (MDA-MB-435): 1800 nM
GI50 (SK-MEL-2): 2250 nM
GI50 (TK-10): 20800 nM
GI50 (DU-145): 1920 nM
GI50 (M14): 1790 nM
GI50 (HCT-15): 3600 nM
GI50 (SF-539): 2430 nM
GI50 (OVCAR-8): 2900 nM
GI50 (PC-3): 3640 nM
GI50 (SK-MEL-5): 3130 nM
GI50 (UACC-257): 1760 nM
GI50 (SR): 410 nM
GI50 (SNB-19): 4150 nM
GI50 (HOP-92): 1580 nM
GI50 (NCI-H23): 2990 nM
GI50 (HL-60(TB)): 630 nM
GI50 (CAKI-1): 12700 nM
GI50 (CCRF-CEM): 320 nM
GI50 (BT-549): 1230 nM
GI50 (SNB-75): 2020 nM
GI50 (MOLT-4): 2110 nM
GI50 (SK-MEL-28): 1650 nM
GI50 (SW-620): 1220 nM
GI50 (HT-29): 1640 nM
GI50 (SN12C): 3740 nM
GI50 (LOX IMVI): 1370 nM
GI50 (NCI-H522): 480 nM
GI50 (NCI/ADR-RES): 33500 nM
GI50 (UO-31): 10900 nM
GI50 (ACHN): 3130 nM
CC50 [1]: 11000 nM
GI50 (HCT-116): 1540 nM
GI50 (COLO 205): 1350 nM
GI50 (KM12): 9460 nM
GI50 (K562): 970 nM
GI50 (SK-OV-3): 6450 nM
GI50 (786-0): 1620 nM
GI50 (U-251): 3030 nM
GI50 (MDA-MB-231): 1970 nM
GI50 (Hs-578T): 3880 nM
GI50 (MDA-MB-468): 1330 nM
GI50 (MCF7): 770 nM
GI50 (NCI-H226): 2060 nM
GI50 (NCI-H460): 5000 nM
GI50 (A498): 6720 nM
GI50 (SF-295): 15100 nM
GI50 (HCC 2998): 4120 nM
GI50 (UACC-62): 1970 nM
GI50 [2]: 1000 nM
GI50 (OVCAR-5): 1820 nM
GI50 (SF-268): 3340 nM
GI50 (Malme-3M): 2040 nM
GI50 (OVCAR-4): 1640 nM
GI50 (OVCAR-3): 1500 nM
GI50 (RPMI-8226): 1670 nM
GI50 (RXF 393): 850 nM
GI50 (NCI-H322M): 16300 nM
GI50 (T47D): 1510 nM
GI50 (A549): 18500 nM

C=C1C(=O)O[C@H]2[C@H]1CC/C(COC(=O)CCC(=O)NCCCCCCCCCNC(=O)CCC(=O)OC/C1=C/CC[C@@]3(C)O[C@H]3[C@H]3OC(=O)C(=C)[C@@H]3CC1)=C\CC[C@@]1(C)O[C@@H]21
GI50 (MDA-MB-435): 1630 nM
GI50 (SK-MEL-2): 2120 nM
GI50 (TK-10): 1780 nM
GI50 (DU-145): 1750 nM
GI50 (M14): 1650 nM
GI50 (HCT-15): 2630 nM
GI50 (SF-539): 1850 nM
GI50 (OVCAR-8): 3240 nM
GI50 (PC-3): 2530 nM
GI50 (SK-MEL-5): 1880 nM
GI50 (UACC-257): 2060 nM
GI50 (SR): 330 nM
GI50 (SNB-19): 3380 nM
GI50 (HOP-92): 1400 nM
GI50 (NCI-H23): 2230 nM
GI50 (HL-60(TB)): 440 nM
GI50 (CAKI-1): 10500 nM
GI50 (CCRF-CEM): 280 nM
GI50 (BT-549): 660 nM
GI50 (SNB-75): 1470 nM
GI50 (MOLT-4): 640 nM
GI50 (SK-MEL-28): 1470 nM
GI50 (SW-620): 540 nM
GI50 (HT-29): 1330 nM
GI50 (SN12C): 2690 nM
GI50 (LOX IMVI): 370 nM
GI50 (NCI-H522): 420 nM
GI50 (NCI/ADR-RES): 26700 nM
GI50 (UO-31): 3900 nM
GI50 (ACHN): 2100 nM
CC50 [1]: 6500 nM
GI50 (HCT-116): 860 nM
GI50 (COLO 205): 1220 nM
GI50 (KM12): 4600 nM
GI50 (K562): 450 nM
GI50 (SK-OV-3): 5800 nM
GI50 (786-0): 1490 nM
GI50 (U-251): 3010 nM
GI50 (MDA-MB-231): 1580 nM
GI50 (Hs-578T): 2990 nM
GI50 (MDA-MB-468): 980 nM
GI50 (MCF7): 420 nM
GI50 (NCI-H226): 1900 nM
GI50 (NCI-H460): 2180 nM
GI50 (A498): 2720 nM
GI50 (SF-295): 7680 nM
GI50 (HCC 2998): 2250 nM
GI50 (UACC-62): 1690 nM
GI50 [2]: 440 nM
GI50 (OVCAR-5): 1700 nM
GI50 (SF-268): 2920 nM
GI50 (Malme-3M): 1940 nM
GI50 (OVCAR-4): 1480 nM
GI50 (OVCAR-3): 1290 nM
GI50 (RPMI-8226): 500 nM
GI50 (RXF 393): 1010 nM
GI50 (NCI-H322M): 16300 nM
GI50 (T47D): 1490 nM
GI50 (A549): 13800 nM

From ChEMBL document CHEMBL4033723, “Succinamide derivatives of melampomagnolide B and their anti-cancer activities” (2017)
